pIC50: −log10 of the molar value.
Test system: IL-1β release upon NLRP3 activation in peripheral blood mononuclear cells (PBMC)
Assay: PBMC IC50 determination assay (inhibition of IL-1β release)
Type: cell-based
Details: Homo sapiens; IL-1β release from LPS-primed PBMC stimulated with ATP (5 mM) or nigericin (10 μM); ELISA or HTRF; corresponding sodium salts evaluated
Description: The compounds of the present disclosure were tested for their inhibitory activity against IL-1β release upon NLRP3 activation in peripheral blood mononuclear cells (PBMC).
Protocol A. PBMC were isolated from buffy coats by density gradient centrifugation on Histopaque-1077 (Sigma, cat no. 10771). Isolated cells were seeded into the wells of a 96-well plate and incubated for 3 h with lipopolysaccharide (LPS). Following medium exchange, the compounds of the present disclosure were added (a single compound per well) and the cells were incubated for 30 min. Next, the cells were stimulated either with ATP (5 mM) or nigericin (10 μM) for 1 h and the cell culture media from the wells were collected for further analysis.
The release of IL-1β into the media was determined by a quantitative detection of IL-1β in the media using an IL-1β enzyme-linked immunosorbent assay (ELISA) Ready-SET-Go!, eBioscience cat. No. 88-7261-88. Briefly, in a first step, high affinity binding plates (Corning, Costar 9018 or NUNC Maxisorp Cat No. 44-2404) were coated overnight at 4° C. with specific capture antibody included in the kit (anti-human IL-1β ref. 14-7018-68). Subsequently, plates were blocked with blocking buffer for 1 h at room temperature (rt) and after washing with a buffer (PBS with 0.05% Tween-20) incubated with protein standard and culture media. After 2 h of incubation at rt, plates were washed and incubated with biotinylated detection antibody included in the kit (anti-human IL-1β Biotin ref. 33-7110-68) for 1 h at rt. Plates were washed and incubated with HRP-streptavidin for 30 min at rt and washed again. The signal was developed after addition of 3,3′,5,5′-tetramethylbenzidine-peroxidase (TMB) until colour appeared and the reaction was stopped by 2 M H2SO4. A microplate spectrophotometer (BioTek) was used to detect signals with 450 nm. The detection range of IL-1β ELISA was 2-150 ng/ml.
Protocol B. PBMC were isolated from buffy coats by density gradient centrifugation on Histopaque-1077 (Sigma, cat no. 10771). Isolated cells were seeded into the wells (280,000 cells/well) of a 96-well plate and incubated for 3 h with lipopolysaccharide (LPS, 1 μg/ml diluted 1000× from a 1 mg/ml stock solution). The compounds of the present disclosure were added (a single compound per well) and the cells were incubated for 30 min. Next, the cells were stimulated with ATP (5 mM final concentration diluted 20× from a 100 mM stock solution) for 1 h and the cell culture media from the wells were collected for further analysis.
The release of IL-1β into the media was determined by quantitative detection of IL-1β in the media using HTRF®, CisBio cat. No. 62HIL1BPEH. Briefly, cell culture supernatant were dispensed directly into the assay plate containing antibodies labelled with the HTRF® donor and acceptor. A microplate spectrophotometer (BMG) was used to detect signals at 655 nm and 620 nm. The detection range of IL-1β HTRF® was 39-6500 pg/ml.

**Q.** With `CC(C)c1ccc(C(C)C)c(CC(=O)NS(=O)(=O)N(C[C@@H]2CCCN2C)c2cnn(C)c2)c1` [Example 50] as the compound, how does the pIC50 read?
**A.** ≤ 4.30

**Q.** `CC(C)c1cc(CC(=O)NS(=O)(=O)N(c2cnn(C)c2)C2CCCN(C)C2)cc(C(C)C)c1` (stereo not drawn) [Example 3] was tested. Which pIC50 did it give?
**A.** 4.30 to 5.00

**Q.** How did the pIC50 turn out when `Cn1cc(N(CCN)S(=O)(=O)NC(=O)Cc2c3c(cc4c2CCC4)CCC3)cn1` [Example 22, N-[(2-Aminoethyl)(1-methyl-1H-pyrazol-4-yl)sulfamoyl]-2-(1,2,3,5,6,7-hexahydro-s-indacen-4-yl)acetamide] was run?
**A.** 4.30 to 5.00

**Q.** `Cn1cc(N(CCCN)S(=O)(=O)NC(=O)Cc2c3c(cc4c2CCC4)CCC3)cn1` [Example 34] was tested. Which pIC50 did it give?
**A.** ≤ 4.30

**Q.** `CC(C)c1cc(CC(=O)NS(=O)(=O)N(c2cnn(C)c2)C2CCCN(C)C2)c(C(C)C)s1` (stereo not drawn) [Example 14, 2-[2,5-Bis(propan-2-yl)thiophen-3-yl]-N-[(1-methyl-1H-pyrazol-4-yl)(1-methylpiperidin-3-yl)sulfamoyl]acetamide] was tested. Which pIC50 did it give?
**A.** > 6.00

**Q.** With `Cc1cc(CC(=O)NS(=O)(=O)N(c2cnn(C)c2)C2CCCN(C)C2)cc(C(F)(F)F)c1` (stereo not drawn) [Example 2, N-[(1-Methyl-1H-pyrazol-4-yl)(1-methylpiperidin-3-yl)sulfamoyl]-2-[3-methyl-5-(trifluoromethyl)phenyl]acetamide] as the compound, how does the pIC50 read?
**A.** 4.30 to 5.00

**Q.** How did the pIC50 turn out when `CC(C)c1cc(CC(=O)NS(=O)(=O)N(C[C@H]2C[C@@H](F)CN2C)c2cnn(C)c2)cc(C(C)C)c1` [Example 39] was run?
**A.** ≤ 4.30

**Q.** `CN1CCC[C@H]1CN(c1cnn(C)c1)S(=O)(=O)NC(=O)Cc1cc(C(C)(C)C)cc(C(C)(C)C)c1` [Example 52] was tested. Which pIC50 did it give?
**A.** ≤ 4.30

**Q.** With `CC(C)c1cc(F)cc(C(C)C)c1CC(=O)NS(=O)(=O)N(c1cnn(C)c1)C1CCN(C)CC1` [Example 31] as the compound, how does the pIC50 read?
**A.** ≤ 4.30

**Q.** With `CN(CCN(c1cnn(C)c1)S(=O)(=O)NC(=O)Cc1c2c(cc3c1CCC3)CCC2)C(=O)OCc1ccccc1` [Example 25, Benzyl N-[2-({[2-(1,2,3,5,6,7-hexahydro-s-indacen-4-yl)acetamido]sulfonyl}(1-methyl-1H-pyrazol-4-yl)amino)ethyl]-N-methylcarbamate] as the compound, how does the pIC50 read?
**A.** 5.00 to 5.52

**Q.** How did the pIC50 turn out when `Cn1cc(N(C2CCCNC2)S(=O)(=O)NC(=O)Cc2c3c(cc4c2CCC4)CCC3)cn1` (stereo not drawn) [Example 20, 2-(1,2,3,5,6,7-Hexahydro-s-indacen-4-yl)-N-[(1-methyl-1H-pyrazol-4-yl)(piperidin-3-yl)sulfamoyl]acetamide] was run?
**A.** 5.52 to 6.00

**Q.** `CN(C)CCN(c1cnn(C)c1)S(=O)(=O)NC(=O)Cc1c2c(cc3c1CCC3)CCC2` [Example 18, N-{[2-(Dimethylamino)ethyl](1-methyl-1H-pyrazol-4-yl)sulfamoyl}-2-(1,2,3,5,6,7-hexahydro-s-indacen-4-yl)acetamide] was tested. Which pIC50 did it give?
**A.** 5.52 to 6.00

**Q.** How did the pIC50 turn out when `CC(C)c1cc(Cl)cc(CC(=O)NS(=O)(=O)N(C[C@@H]2CCCN2C)c2cnn(C)c2)c1` [Example 8, 2-[3-Chloro-5-(propan-2-yl)phenyl]-N-[(1-methyl-1H-pyrazol-4-yl)({[(2S)-1-methylpyrrolidin-2-yl]methyl})sulfamoyl]acetamide] was run?
**A.** 5.52 to 6.00

**Q.** How did the pIC50 turn out when `CN1CCC[C@H]1CN(c1cnn(C)c1)S(=O)(=O)NC(=O)Cc1cc(Cl)cc(C(C)(C)C)c1` (stereo in doubt) [Example 56] was run?
**A.** ≤ 4.30

**Q.** With `CN1CCC(N(c2cnn(C)c2)S(=O)(=O)NC(=O)Cc2c3c(cc4c2CC4)CC3)CC1` [Example 29, N-[(1-methyl-4-piperidyl)-(1-methylpyrazol-4-yl)sulfamoyl]-2-(2-tricyclo[6.2.0.03,6]deca-1(8),2,6-trienyl)acetamide] as the compound, how does the pIC50 read?
**A.** 5.52 to 6.00

**Q.** How did the pIC50 turn out when `CCc1cc(CC(=O)NS(=O)(=O)N(c2cnn(C)c2)C2CCCN(C)C2)cc(C(F)(F)F)c1` (stereo not drawn) [Example 16, 2-[3-Ethyl-5-(trifluoromethyl)phenyl]-N-[(1-methyl-1H-pyrazol-4-yl)(1-methylpiperidin-3-yl)sulfamoyl]acetamide] was run?
**A.** 5.00 to 5.52

**Q.** With `Cc1noc(N(C2CCCN(C)C2)S(=O)(=O)NC(=O)Cc2cc(C(C)C)cc(C(C)C)c2)c1C` (stereo not drawn) [Example 7, 2-[3,5-Bis(propan-2-yl)phenyl]-N-[(3,4-dimethyl-1,2-oxazol-5-yl)(1-methylpiperidin-3-yl)sulfamoyl]acetamide] as the compound, how does the pIC50 read?
**A.** > 6.00

**Q.** With `CC(C)c1ccc(Cl)c(C(C)C)c1CC(=O)NS(=O)(=O)N(C[C@@H]1CCCN1C)c1cnn(C)c1` [Example 12, 2-[3-Chloro-2,6-bis(propan-2-yl)phenyl]-N-[(1-methyl-1H-pyrazol-4-yl)({[(2S)-1-methylpyrrolidin-2-yl]methyl})sulfamoyl]acetamide] as the compound, how does the pIC50 read?
**A.** 5.00 to 5.52

**Q.** `CC(=O)N(C)CCN(c1cnn(C)c1)S(=O)(=O)NC(=O)Cc1c2c(cc3c1CCC3)CCC2` [Example 26, 2-(1,2,3,5,6,7-Hexahydro-s-indacen-4-yl)-N-[(1-methyl-1H-pyrazol-4-yl)[2-(N-methylacetamido)ethyl]sulfamoyl]acetamide] was tested. Which pIC50 did it give?
**A.** 5.00 to 5.52

**Q.** `CN1CCC[C@H]1CN(c1cnn(C)c1)S(=O)(=O)NC(=O)Cc1ccc(C(F)(F)F)cc1Cl` [Example 37] was tested. Which pIC50 did it give?
**A.** ≤ 4.30

**Q.** With `CC(C)c1cc(Cl)cc(C(C)C)c1CC(=O)NS(=O)(=O)N(C[C@@H]1CCCN1C)c1cnn(C)c1` [Example 40] as the compound, how does the pIC50 read?
**A.** ≤ 4.30

**Q.** With `CC(C)c1cc(CC(=O)NS(=O)(=O)N(C[C@@H]2CCCN2C)c2cnn(C)c2)cc(C(C)C)c1Cl` [Example 55] as the compound, how does the pIC50 read?
**A.** 4.30 to 5.00

**Q.** With `CC(C)c1cc(CC(=O)NS(=O)(=O)N(C[C@@H]2CCCN2C)c2cnn(C)c2)cc(C(C)C)c1` [Example 5, 2-[3,5-Bis(propan-2-yl)phenyl]-N-[(1-methyl-1H-pyrazol-4-yl)({[(2S)-1-methylpyrrolidin-2-yl]methyl})sulfamoyl]acetamide] as the compound, how does the pIC50 read?
**A.** > 6.00

**Q.** With `CC(C)c1cc(CC(=O)NS(=O)(=O)N(C[C@@H]2CCCN2C)c2cnn(C)c2)cc(C(F)(F)F)c1` [Example 10, N-[(1-Methyl-1H-pyrazol-4-yl)({[(2S)-1-methylpyrrolidin-2-yl]methyl})-sulfamoyl]-2-[3-(propan-2-yl)-5-(trifluoromethyl)phenyl]acetamide] as the compound, how does the pIC50 read?
**A.** 5.00 to 5.52

**Q.** How did the pIC50 turn out when `CC(C)c1cc(CC(=O)NS(=O)(=O)N(CC2CCCO2)c2cnn(C)c2)cc(C(C)C)c1` (stereo not drawn) [Example 38] was run?
**A.** 4.30 to 5.00

**Q.** How did the pIC50 turn out when `Cc1ccc(C(C)C)cc1CC(=O)NS(=O)(=O)N(c1cnn(C)c1)C1CCCN(C)C1` (stereo not drawn) [Example 48] was run?
**A.** ≤ 4.30

**Q.** With `Cn1cc(N(CCNC(=O)OCc2ccccc2)S(=O)(=O)NC(=O)Cc2c3c(cc4c2CCC4)CCC3)cn1` [Example 21] as the compound, how does the pIC50 read?
**A.** 5.00 to 5.52

**Q.** With `CN1CCCC(N(c2cnn(C)c2)S(=O)(=O)NC(=O)Cc2ccc3c(c2)C(C)(C)CO3)C1` (stereo not drawn) [Example 49] as the compound, how does the pIC50 read?
**A.** ≤ 4.30

**Q.** `CN1CCCC(N(c2cnn(C)c2)S(=O)(=O)NC(=O)Cc2cc(Cl)cc(Cl)c2)C1` (stereo not drawn) [Example 33] was tested. Which pIC50 did it give?
**A.** 4.30 to 5.00

**Q.** `CN1CCC[C@@H]1CN(c1cnn(C)c1)S(=O)(=O)NC(=O)Cc1cc(C(C)(C)C)cc(C(C)(C)C)c1` [Example 54] was tested. Which pIC50 did it give?
**A.** 4.30 to 5.00

**Q.** `CN1CCC[C@H]1CN(c1cnn(C)c1)S(=O)(=O)NC(=O)Cc1c2c(cc3c1CCC3)CCC2` [Example 11, 2-(1,2,3,5,6,7-Hexahydro-s-indacen-4-yl)-N-[(1-methyl-1H-pyrazol-4-yl)({[(2S)-1-methylpyrrolidin-2-yl]methyl})sulfamoyl]acetamide] was tested. Which pIC50 did it give?
**A.** > 6.00

**Q.** How did the pIC50 turn out when `CC(C)c1cc(F)cc(C(C)C)c1CC(=O)NS(=O)(=O)N(c1cnn(C)c1)C1CCCN(C)C1` (stereo not drawn) [Example 1, 2-[4-Fluoro-2,6-bis(propan-2-yl)phenyl]-N-[(1-methyl-1H-pyrazol-4-yl)(1-methylpiperidin-3-yl)sulfamoyl]acetamide] was run?
**A.** 4.30 to 5.00

**Q.** `CN1CCCC(N(c2cnn(C)c2)S(=O)(=O)NC(=O)Cc2cc(Cl)cc(C(F)(F)F)c2)C1` (stereo not drawn) [Example 4, 2-[3-Chloro-5-(trifluoromethyl)phenyl]-N-[(1-methyl-1H-pyrazol-4-yl)(1-methylpiperidin-3-yl)sulfamoyl]acetamide] was tested. Which pIC50 did it give?
**A.** 4.30 to 5.00

**Q.** `CC(C)c1cc(CC(=O)N=S(N)(=O)N(c2cnn(C)c2)C2CCCN(C)C2)c(C(C)C)s1` (stereo not drawn) [Example 15, N-{Amino[(1-methyl-1H-pyrazol-4-yl)(1-methylpiperidin-3-yl)amino]oxo-lambda6-sulfanylidene}-2-[2,5-bis(propan-2-yl)thiophen-3-yl]acetamide] was tested. Which pIC50 did it give?
**A.** 4.30 to 5.00

**Q.** `CN1CCC[C@H]1CN(c1cnn(C)c1)S(=O)(=O)NC(=O)Cc1cc(Cl)cc(OCC(F)(F)F)c1` [Example 51] was tested. Which pIC50 did it give?
**A.** ≤ 4.30

**Q.** With `CC(C)c1cc(CC(=O)N=S(N)(=O)N(c2cnn(C)c2)C2CCCN(C)C2)cc(C(C)C)c1` (stereo not drawn) [Example 41] as the compound, how does the pIC50 read?
**A.** 5.00 to 5.52

Source: patent US20220267300A1 (NodThera Limited, priority 2019, published 2022)
